The source of these data is publication PMC2367043, “Effects of Ursolic Acid and its Analogues on Soybean 15-Lipoxygenase Activity and the Proliferation Rate of A human Gastric Tumour Cell Line” (Mediators of Inflammation, 1994).

Like-named read-outs stand apart in the source and are kept apart here.

The target of the test is T1, soybean 15-lipoxygenase (Glycine max, UniProt P08170).
T1 construct: gene LOX1.1
T1 sequence (P08170 1-839): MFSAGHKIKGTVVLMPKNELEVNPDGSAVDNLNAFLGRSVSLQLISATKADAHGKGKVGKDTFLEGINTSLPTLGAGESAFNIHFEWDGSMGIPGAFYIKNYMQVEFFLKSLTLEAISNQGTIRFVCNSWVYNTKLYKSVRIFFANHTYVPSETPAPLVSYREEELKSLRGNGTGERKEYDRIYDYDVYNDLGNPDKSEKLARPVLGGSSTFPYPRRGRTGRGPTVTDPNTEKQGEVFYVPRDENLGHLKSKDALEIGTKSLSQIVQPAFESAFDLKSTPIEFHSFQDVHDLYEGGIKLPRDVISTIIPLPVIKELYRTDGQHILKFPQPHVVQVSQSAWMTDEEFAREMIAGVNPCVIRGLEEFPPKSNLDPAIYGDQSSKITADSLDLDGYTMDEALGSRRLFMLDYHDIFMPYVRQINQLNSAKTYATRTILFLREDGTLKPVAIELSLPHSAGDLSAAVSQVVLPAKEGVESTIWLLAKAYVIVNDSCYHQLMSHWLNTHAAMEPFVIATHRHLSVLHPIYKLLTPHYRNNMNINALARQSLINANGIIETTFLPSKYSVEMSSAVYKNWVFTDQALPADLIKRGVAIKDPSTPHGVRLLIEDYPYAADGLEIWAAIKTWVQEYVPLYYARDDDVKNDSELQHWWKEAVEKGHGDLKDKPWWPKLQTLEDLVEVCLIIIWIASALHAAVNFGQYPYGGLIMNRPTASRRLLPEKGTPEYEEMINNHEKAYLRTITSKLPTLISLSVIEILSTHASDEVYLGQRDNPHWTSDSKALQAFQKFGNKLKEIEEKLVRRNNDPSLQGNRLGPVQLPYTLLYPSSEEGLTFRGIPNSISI
The experiment in a line: spectrophotometric assay at […] nm of […](S)-HPODE formation from linoleic acid, pH […]. The test is classed as biochemical.

For the compound `CC1(C)CC[C@]2(C(=O)O)CC[C@]3(C)C(=CC[C@@H]4[C@@]5(C)CC[C@H](O)C(C)(C)[C@@H]5CC[C@]43C)[C@@H]2C1` [oleanolic acid], the IC50 was 265 µM.

Take `C[C@H]1[C@H](C)CC[C@]2(C(=O)O)CC[C@]3(C)C(=CC[C@@H]4[C@@]5(C)CC[C@H](O)C(C)(C)[C@@H]5CC[C@]43C)[C@H]12` [ursolic acid]: the IC50 (read-out: IC50) was found to be 175 µM.
